Source: paper PMC4253978, “Characterization of the Anopheles gambiae octopamine receptor and discovery of potential agonists and antagonists using a combined computational-experimental approach” (Malaria Journal, 2014)
Structures can show the parent of a compound that is named as a salt. Where two headings read alike, the source gives them in different places.

Legend:
AgOAR45A = AgOAR45A (Anopheles gambiae, UniProt Q7PRZ8, DEL426-427); assay: cell-based
AgOAR45B [1] = target: T1, AgOAR45B (Anopheles gambiae, UniProt F5HJT6); assay type: cell-based; details: for IC50: read-out: IC 50 (antagonist), in the presence of 1 μM octopamine
Method: GloResponse™CRE-luc2P HEK293 reporter cell line (Promega) were maintained as adherent culture at 37°C, 5% CO2 in DMEM (Invitrogen) supplemented with 10% fetal calf serum (Atlanta), and […] hygromycin B. Transfection of cells was carried out using the Amaxa Nucleofector kit per the manufacturer’s instructions. […] Stable lines were created by applying […] G418 for three weeks. Stable clones of AgOAR45B expressing HEK293 reporter cells were created through two rounds of limiting dilution cloning.
Intracellular cAMP increase was monitored through a CRE-luc reporter construct in HEK293 cells (Promega). Stable cell lines were plated at a density of 4×10^4 cells per well in white 96-well assay plates (Corning, Cat. #3917). Cells were immediately treated with the various compounds, and returned to the incubator for four hours before being assayed. cAMP was quantified through luciferase production using the Dual-Glo luciferase assay kit (Promega) following the manufacturer’s instructions. Luciferase units were normalized to the cell number using the internal Rluc construct in the pF9A expression plasmid.

AgOAR45B [2] = target: T1, AgOAR45B; assay: 3H-Yohimbine competition radioligand binding assay on membranes; details: competition with 16 nM 3H-Yohimbine
Method: Cells in T75 flasks were washed with 10 ml of PBS, removed by scraping, centrifuged at 500 g, and then resuspended in 5 ml of lysis buffer, 50 mM Tris-Cl pH 7.4. Cells were incubated on ice for 10 min and homogenized with a Dounce homogenizer with 30 strokes. The homogenate and 5 ml wash with lysis buffer were then centrifuged at 23,000 g for 30 min at 4°C to pellet crude membranes. The resulting pellet was re-suspended in 50 mM Tris-Cl pH 7.4, 5 mM MgCl2, 0.5 mM EDTA pH 7.4 and quantified by micro BCA assay (Thermo).
Radioligand binding assays were carried out using ^3H-Yohimbine to determine binding affinity of the octopamine receptor with different compounds. Isolated membranes, 30 μg per well, were incubated in the presence of 16 nM ^3H-Yohimbine (American Radiolabeled Chemicals) in binding buffer, and various concentrations of compounds. The final reaction volume was […] per well in a 96-well assay plate. […] clonidine was used to determine non-specific binding in each experiment. After a two-hour incubation, membranes were collected and washed on filter mats, pretreated with 0.3% polyethylenimine (Sigma) using a Brandel 96-well harvester and counted in a Perkin Elmer Microbeta counter.

[3] = read-out: EC 50 (agonist), AgOAR45B, HEK293-CRE-Luc cells

Sequence of AgOAR45A (Q7PRZ8 entry or part of it DEL426-427): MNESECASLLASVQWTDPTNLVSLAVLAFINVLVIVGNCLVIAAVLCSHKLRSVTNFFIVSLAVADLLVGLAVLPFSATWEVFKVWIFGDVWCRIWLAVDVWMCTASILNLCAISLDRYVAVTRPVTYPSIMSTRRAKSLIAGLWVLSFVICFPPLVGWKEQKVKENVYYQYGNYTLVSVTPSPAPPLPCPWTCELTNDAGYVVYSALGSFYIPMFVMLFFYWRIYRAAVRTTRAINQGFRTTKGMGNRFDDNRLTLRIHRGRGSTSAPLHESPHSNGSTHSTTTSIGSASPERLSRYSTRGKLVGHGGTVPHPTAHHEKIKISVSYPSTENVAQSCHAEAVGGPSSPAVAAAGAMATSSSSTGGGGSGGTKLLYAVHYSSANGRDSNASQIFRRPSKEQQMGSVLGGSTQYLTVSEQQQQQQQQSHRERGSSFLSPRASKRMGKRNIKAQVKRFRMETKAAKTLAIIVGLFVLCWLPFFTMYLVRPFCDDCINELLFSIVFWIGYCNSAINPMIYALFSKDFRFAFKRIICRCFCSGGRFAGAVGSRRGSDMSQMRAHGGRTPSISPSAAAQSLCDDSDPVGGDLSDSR
T1 sequence (F5HJT6 entry or part of it): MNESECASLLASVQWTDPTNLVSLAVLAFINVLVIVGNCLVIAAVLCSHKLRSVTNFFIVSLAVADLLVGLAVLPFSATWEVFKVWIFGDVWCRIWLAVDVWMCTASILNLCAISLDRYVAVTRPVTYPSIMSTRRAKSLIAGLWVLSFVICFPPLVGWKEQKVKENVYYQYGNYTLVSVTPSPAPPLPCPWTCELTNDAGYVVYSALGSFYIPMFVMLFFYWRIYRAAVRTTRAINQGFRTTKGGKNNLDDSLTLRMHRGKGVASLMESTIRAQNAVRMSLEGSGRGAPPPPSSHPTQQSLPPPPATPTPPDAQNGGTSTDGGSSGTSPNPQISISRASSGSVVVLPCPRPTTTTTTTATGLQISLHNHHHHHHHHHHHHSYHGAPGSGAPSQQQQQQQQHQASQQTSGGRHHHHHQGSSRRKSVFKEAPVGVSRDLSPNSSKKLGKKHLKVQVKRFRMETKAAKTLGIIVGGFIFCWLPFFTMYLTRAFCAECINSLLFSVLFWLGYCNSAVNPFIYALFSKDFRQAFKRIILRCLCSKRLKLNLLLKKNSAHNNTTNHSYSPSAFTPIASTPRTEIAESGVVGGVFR

Question: Which EC50 (AgOAR45A) does the source give for `NCCc1c[nH]c2ccc(O)cc12` [Serotonin, serotonin] here?
Answer: The EC50 was over 50000 nM.

Question: And the EC50 (AgOAR45B [1]; [3])?
Answer: Its EC50 is over 50000 nM.

Question: How did the EC50 (AgOAR45A) turn out when `Clc1cccc(Cl)c1N=C1NCCN1` [Clonidine, clonidine] was run?
Answer: The EC50 was 2 nM.

Question: What about the EC50 (AgOAR45B [1]; [3]) of the same molecule?
Answer: The EC50 was 0.24 nM.

Question: Which IC50 (AgOAR45B [1]; AgOAR45B) does the source give for `CN(C)CCCN1c2ccccc2Sc2ccc(Cl)cc21` [Chlorpromazine, chlorpromazine] here?
Answer: The IC50 was 9.9 µM.

Question: How did the IC50 (AgOAR45B [1]; AgOAR45B) turn out when `CC(CN1c2ccccc2Sc2ccccc21)N(C)C` (stereo not drawn) [Promethazine, promethazine] was run?
Answer: Its IC50 is 2 µM.

Question: `c1ccc2c(CC3=NCCN3)cccc2c1` [Naphazoline, naphazoline] was tested. Which EC50 (AgOAR45A) did it give?
Answer: The EC50 was 2.2 nM.

Question: And the EC50 (AgOAR45B [1]; [3])?
Answer: Its EC50 is 0.23 nM.

Question: With `CCN(CC)CCNC(=O)c1cc(Cl)c(N)cc1OC` [Metaclopramide, Metoclopramide hydrochloride] as the molecule, how does the IC50 (AgOAR45B [1]; AgOAR45B) read?
Answer: The IC50 was over 50 µM.

Question: What does the source list for `NCCc1ccc(O)c(O)c1` [Dopamine, dopamine]?
Answer: EC50 (AgOAR45A): > 50000 nM; EC50 (AgOAR45B [1]; [3]): > 50000 nM

Question: What does the source list for `NCC(O)c1ccc(O)cc1` (racemic) [Octopamine, DL-octopamine]?
Answer: EC50 (AgOAR45A): 53 nM; Ki (AgOAR45B [2]): 7.7 µM; EC50 (AgOAR45B [1]; Table 2, AgOAR45B reporter assay): 17 nM; EC50 (AgOAR45B [1]; [3]): 17 nM

Question: With `NCCc1ccc(O)cc1` [Tyramine, tyramine] as the molecule, how does the EC50 (AgOAR45A) read?
Answer: The EC50 was 4600 nM.

Question: What about the EC50 (AgOAR45B [1]; [3]) of the same molecule?
Answer: The EC50 was 840 nM.

Question: What does the source list for `Cc1ccc(N(CC2=NCCN2)c2cccc(O)c2)cc1` [Phentolamine, phentolamine]?
Answer: EC50 (AgOAR45A): 10 nM; EC50 (AgOAR45B [1]; [3]): 5.8 nM

Question: Which results are given for `c1ccc(CC2=NCCN2)cc1` [Tolazoline, tolazoline]?
Answer: EC50 (AgOAR45A): 280 nM; EC50 (AgOAR45B [1]; [3]): 5 nM
